Experimental findings from PMC5241873, “The clinically approved antiviral drug sofosbuvir inhibits Zika virus replication” (Scientific Reports, 2017) are described below.

The test system of test [1] is T1, recombinant ZVRP (C-terminal portion).
T1 construct: gene NS5; pET-41b+ BamHI/SacI, N-terminal GST tag, E. coli BL21; B3U3M3 is printed for the 3D model only
The experiment in a line: RdRp assay, labelled UTP incorporation on ZIKV RNA, ALPHA detection. It counts as biochemical, Zika virus. To be noted: 0.4 mM each ATP, GTP, CTP and labelled UTP; 3 mM MgCl2; pH 7.3; 30 °C; 1 h.

In test [2] the test system is T2, ZIKV RNA polymerase (ZVRP), partially purified from ZIKV-infected BHK-21 cells.
T2 construct: gene NS5; mature NS5 from the genome polyprotein; native, partially purified from infected BHK-21 cells (100,000 x g supernatant, DEAE- and phospho-cellulose)
The description is as above. In kind it is biochemical, Zika virus. Conditions: 0.4 mM each ATP, GTP, CTP and labelled UTP; 3 mM MgCl2; pH 7.3; 30 °C; 1 h; partially purified enzyme.

Some results are limits rather than exact numbers.

`NC(=O)c1ncn([C@@H]2O[C@H](COP(=O)(O)OP(=O)(O)OP(=O)(O)O)[C@@H](O)[C@H]2O)n1` [RTP, ribavirin triphosphate]: the results for the IC50 in test [1] and in test [2] were 620 ± 50 nM and 210 ± 60 nM, respectively.
For `Cc1cn([C@H]2C[C@H](N=[N+]=[N-])[C@@H](COP(=O)(O)OP(=O)(O)OP(=O)(O)O)O2)c(=O)[nH]c1=O` [AZT-TP, AZT triphosphate], in that order: greater than 10000 nM and greater than 10000 nM.
For `C[C@@]1(F)[C@H](O)[C@@H](COP(=O)(O)OP(=O)(O)OP(=O)(O)O)O[C@H]1n1ccc(=O)[nH]c1=O` [STP, β-d-2′-deoxy-2′-α-fluoro-2′-β-C-methyluridine triphosphate], in that order: 610 ± 80 nM and 380 ± 30 nM.
